Source: the supplement of paper PMC13380429

Legend:
Details in all cases: 72 h
[1] = tested on: HepG2; experiment: cell viability relative to DMSO; higher = less toxic
[2] = tested on: Vero E6; experiment: as above
[3] = tested on: Calu-3; experiment: as above
[4] = tested on: Caco-2; experiment: as above
[5] = tested on: U2OS; experiment: as above
[6] = tested on: HepG2; experiment: relative viability EC50 (midpoint between 100% and the lowest measured viability); higher = less toxic
[7] = tested on: Vero E6; experiment: as above
[8] = tested on: Calu-3; experiment: as above
[9] = tested on: Caco-2; experiment: as above
[10] = tested on: HepG2; experiment: drug sensitivity score (DSS) for viability; higher = more toxic; extreme values may be limits of the assay
[11] = tested on: Vero E6; experiment: as above
[12] = tested on: Calu-3; experiment: as above
[13] = tested on: Caco-2; experiment: as above
[14] = tested on: U2OS; experiment: as above
[15] = tested on: U2OS; experiment: relative viability EC50 (midpoint between 100% and the lowest measured viability); higher = less toxic

O=c1cc(-c2ccccc2)oc2cc(O)c(O)c(O)c12 [baicalein]
cell viability ([1]; 1 nM): 92.1% | cell viability ([1]; 10 nM): 102% | cell viability ([1]; 100 nM): 90.8% | cell viability ([1]; 1000 nM): 101% | cell viability ([1]; 10000 nM): 104% | cell viability ([2]; 1 nM): 91.4% | cell viability ([2]; 10 nM): 98.3% | cell viability ([2]; 100 nM): 93.1% | cell viability ([2]; 1000 nM): 97% | cell viability ([2]; 10000 nM): 104% | cell viability ([3]; 1 nM): 105% | cell viability ([3]; 10 nM): 101% | cell viability ([3]; 100 nM): 103% | cell viability ([3]; 1000 nM): 103% | cell viability ([3]; 10000 nM): 87.5% | cell viability ([4]; 1 nM): 96.2% | cell viability ([4]; 10 nM): 99.7% | cell viability ([4]; 100 nM): 96.9% | cell viability ([4]; 1000 nM): 99.2% | cell viability ([4]; 10000 nM): 77.1% | cell viability ([5]; 1 nM): 99.9% | cell viability ([5]; 10 nM): 97.5% | cell viability ([5]; 100 nM): 101% | cell viability ([5]; 1000 nM): 95.2% | cell viability ([5]; 10000 nM): 62.6% | relative viability EC50 [6]: > 10 µM | relative viability EC50 [7]: > 10 µM | relative viability EC50 [8]: > 10 µM | relative viability EC50 [9]: > 10 µM | drug sensitivity score [10]: 0 | drug sensitivity score [11]: 0 | drug sensitivity score [12]: 0 | drug sensitivity score [13]: 0.9 | drug sensitivity score [14]: 2.6

CCCCCCCCCCCCCCCC(=O)OC[C@H](COP(=O)([O-])OCC[N+](C)(C)C)OC(=O)CCCCCCCCCCCCCCC [colfosceril-palmitate]
cell viability ([1]; 1 nM): 97.5% | cell viability ([1]; 10 nM): 108% | cell viability ([1]; 100 nM): 93.3% | cell viability ([1]; 1000 nM): 101% | cell viability ([1]; 10000 nM): 99.7% | cell viability ([2]; 1 nM): 102% | cell viability ([2]; 10 nM): 97.3% | cell viability ([2]; 100 nM): 96.7% | cell viability ([2]; 1000 nM): 95.6% | cell viability ([2]; 10000 nM): 95.6% | cell viability ([3]; 1 nM): 100% | cell viability ([3]; 10 nM): 103% | cell viability ([3]; 100 nM): 98.1% | cell viability ([3]; 1000 nM): 99.2% | cell viability ([3]; 10000 nM): 86.9% | cell viability ([4]; 1 nM): 115% | cell viability ([4]; 10 nM): 113% | cell viability ([4]; 100 nM): 101% | cell viability ([4]; 1000 nM): 95.7% | cell viability ([4]; 10000 nM): 71.7% | cell viability ([5]; 1 nM): 102% | cell viability ([5]; 10 nM): 103% | cell viability ([5]; 100 nM): 94.8% | cell viability ([5]; 1000 nM): 101% | cell viability ([5]; 10000 nM): 95.9% | relative viability EC50 [6]: > 10 µM | relative viability EC50 [7]: > 10 µM | relative viability EC50 [8]: > 10 µM | relative viability EC50 [15]: > 10 µM | drug sensitivity score [10]: 0 | drug sensitivity score [11]: 0 | drug sensitivity score [12]: 0.2 | drug sensitivity score [13]: 1.9 | drug sensitivity score [14]: 0

CN1CCC[C@@H]1Cc1c[nH]c2ccc(CCS(=O)(=O)c3ccccc3)cc12 [eletriptan]
cell viability ([1]; 1 nM): 103% | cell viability ([1]; 10 nM): 99.6% | cell viability ([1]; 100 nM): 96.7% | cell viability ([1]; 1000 nM): 95.6% | cell viability ([1]; 10000 nM): 97% | cell viability ([3]; 1 nM): 88.5% | cell viability ([3]; 10 nM): 102% | cell viability ([3]; 100 nM): 97.8% | cell viability ([3]; 1000 nM): 95.2% | cell viability ([3]; 10000 nM): 87.3% | cell viability ([4]; 1 nM): 96.5% | cell viability ([4]; 10 nM): 98% | cell viability ([4]; 100 nM): 104% | cell viability ([4]; 1000 nM): 105% | cell viability ([4]; 10000 nM): 96.1% | cell viability ([5]; 1 nM): 98.6% | cell viability ([5]; 10 nM): 104% | cell viability ([5]; 100 nM): 94.6% | cell viability ([5]; 1000 nM): 104% | cell viability ([5]; 10000 nM): 96.3% | relative viability EC50 [6]: > 10 µM | relative viability EC50 [8]: > 10 µM | relative viability EC50 [9]: > 10 µM | relative viability EC50 [15]: > 10 µM | drug sensitivity score [10]: 0 | drug sensitivity score [12]: 0.1 | drug sensitivity score [13]: 0 | drug sensitivity score [14]: 0

C#C[C@]1(O)CC[C@H]2[C@@H]3CCc4cc(OC)ccc4[C@H]3CC[C@@]21C [mestranol]
cell viability ([1]; 1 nM): 113% | cell viability ([1]; 10 nM): 104% | cell viability ([1]; 100 nM): 107% | cell viability ([1]; 1000 nM): 103% | cell viability ([1]; 10000 nM): 97.5% | cell viability ([3]; 1 nM): 89.6% | cell viability ([3]; 10 nM): 102% | cell viability ([3]; 100 nM): 108% | cell viability ([3]; 1000 nM): 104% | cell viability ([3]; 10000 nM): 103% | cell viability ([4]; 1 nM): 96.8% | cell viability ([4]; 10 nM): 106% | cell viability ([4]; 100 nM): 102% | cell viability ([4]; 1000 nM): 100% | cell viability ([4]; 10000 nM): 82.7% | cell viability ([5]; 1 nM): 102% | cell viability ([5]; 10 nM): 98.6% | cell viability ([5]; 100 nM): 96.7% | cell viability ([5]; 1000 nM): 101% | cell viability ([5]; 10000 nM): 96.1% | relative viability EC50 [6]: > 10 µM | relative viability EC50 [8]: > 10 µM | relative viability EC50 [9]: > 10 µM | relative viability EC50 [15]: > 10 µM | drug sensitivity score [10]: 0 | drug sensitivity score [12]: 0 | drug sensitivity score [13]: 0.4 | drug sensitivity score [14]: 0

O=C(c1ccccn1)c1cnn2c(-c3ccncc3)ccnc12 [ocinaplon]
cell viability ([1]; 1 nM): 108% | cell viability ([1]; 10 nM): 98.7% | cell viability ([1]; 100 nM): 107% | cell viability ([1]; 1000 nM): 93.5% | cell viability ([1]; 10000 nM): 95.1% | cell viability ([2]; 1 nM): 104% | cell viability ([2]; 10 nM): 99.2% | cell viability ([2]; 100 nM): 100% | cell viability ([2]; 1000 nM): 102% | cell viability ([2]; 10000 nM): 102% | cell viability ([3]; 1 nM): 98.7% | cell viability ([3]; 10 nM): 93.6% | cell viability ([3]; 100 nM): 104% | cell viability ([3]; 1000 nM): 95.7% | cell viability ([3]; 10000 nM): 107% | cell viability ([5]; 1 nM): 94% | cell viability ([5]; 10 nM): 103% | cell viability ([5]; 100 nM): 99.2% | cell viability ([5]; 1000 nM): 102% | cell viability ([5]; 10000 nM): 99.2% | relative viability EC50 [6]: > 10 µM | relative viability EC50 [7]: > 10 µM | relative viability EC50 [8]: > 10 µM | relative viability EC50 [15]: > 10 µM | drug sensitivity score [10]: 0 | drug sensitivity score [11]: 0 | drug sensitivity score [12]: 0 | drug sensitivity score [14]: 0

Cn1c(=O)c2[nH]c(Br)nc2n(C)c1=O [pamabrom]
cell viability ([1]; 1 nM): 100% | cell viability ([1]; 10 nM): 94.8% | cell viability ([1]; 100 nM): 92.9% | cell viability ([1]; 1000 nM): 89.7% | cell viability ([1]; 10000 nM): 112% | cell viability ([3]; 1 nM): 105% | cell viability ([3]; 10 nM): 99.3% | cell viability ([3]; 100 nM): 100% | cell viability ([3]; 1000 nM): 103% | cell viability ([3]; 10000 nM): 105% | cell viability ([4]; 1 nM): 90.3% | cell viability ([4]; 10 nM): 103% | cell viability ([4]; 100 nM): 91% | cell viability ([4]; 1000 nM): 109% | cell viability ([4]; 10000 nM): 101% | cell viability ([5]; 1 nM): 98.6% | cell viability ([5]; 10 nM): 99.8% | cell viability ([5]; 100 nM): 97.9% | cell viability ([5]; 1000 nM): 102% | cell viability ([5]; 10000 nM): 96.4% | relative viability EC50 [6]: > 10 µM | relative viability EC50 [8]: > 10 µM | relative viability EC50 [9]: > 10 µM | relative viability EC50 [15]: > 10 µM | drug sensitivity score [10]: 0 | drug sensitivity score [12]: 0 | drug sensitivity score [13]: 0 | drug sensitivity score [14]: 0

C[C@]1(c2nc3c(C(N)=O)cccc3[nH]2)CCCN1 [veliparib]
cell viability ([1]; 1 nM): 105% | cell viability ([1]; 10 nM): 107% | cell viability ([1]; 100 nM): 106% | cell viability ([1]; 1000 nM): 96.1% | cell viability ([1]; 10000 nM): 101% | cell viability ([3]; 1 nM): 105% | cell viability ([3]; 10 nM): 100% | cell viability ([3]; 100 nM): 100% | cell viability ([3]; 1000 nM): 111% | cell viability ([3]; 10000 nM): 92.1% | cell viability ([5]; 1 nM): 96.7% | cell viability ([5]; 10 nM): 104% | cell viability ([5]; 100 nM): 96.8% | cell viability ([5]; 1000 nM): 106% | cell viability ([5]; 10000 nM): 96.6% | relative viability EC50 [6]: > 10 µM | relative viability EC50 [8]: > 10 µM | relative viability EC50 [15]: > 10 µM | drug sensitivity score [10]: 0 | drug sensitivity score [12]: 0 | drug sensitivity score [14]: 0
